In ChEMBL document CHEMBL3885861, “Open TG-GATES”:

Species on record: Rattus norvegicus
Assay: Open TG-GATES - Regimen: Daily Repeat
Type: toxicity, organism-based, Sprague-Dawley
Set-up: regimen Daily Repeat, gender Male, age 6 weeks
Settings: in vivo, po, 0 mg/kg, route gavage, dose level Control; for APTT / Bas / Eos / Fbg / Hb / Ht / Lym / MCH / MCHC / MCV / Mono / Neu / PT / Plat / RBC / Ret / WBC: tissue Blood; for KIDNEY_L / KIDNEY_R / KIDNEY_TOTAL: tissue Kidney; for LIVER: tissue Liver; for A/G / ALP / ALT / AST / BUN / CRE / Ca / Cl / DBIL / GLC / IP / K / LDH / Na / PL / RALB / TBIL / TC / TG / TP / gamma-GTP: tissue Plasma

CN(C)CCN(Cc1cccs1)c1ccccn1
TERMINAL_BW (72 h, time 3 day): 217.2 g
APTT (72 h, time 3 day): 22.4 s
Bas (72 h, time 3 day): 0%
Eos (72 h, time 3 day): 0.6%
Fbg (72 h, time 3 day): 290.8 mg/dL
Hb (72 h, time 3 day): 12.9 g/dL
Ht (72 h, time 3 day): 38.8%
Lym (72 h, time 3 day): 80.4%
MCH (72 h, time 3 day): 21.3 pg
MCHC (72 h, time 3 day): 33.4%
MCV (72 h, time 3 day): 63.8 fL
Mono (72 h, time 3 day): 1.8%
Neu (72 h, time 3 day): 16.4%
PT (72 h, time 3 day): 15.9 s
Plat (72 h, time 3 day): 125.8 x10_4/uL
RBC (72 h, time 3 day): 609 x10_4/ul
Ret (72 h, time 3 day): 6.8%
WBC (72 h, time 3 day): 107.9 x10_2/uL
KIDNEY_L (72 h, time 3 day): 1 g
KIDNEY_R (72 h, time 3 day): 1 g
KIDNEY_TOTAL (72 h, time 3 day): 2 g
LIVER (72 h, time 3 day): 10.2 g
A/G (72 h, time 3 day): 1.2
ALP (72 h, time 3 day): 1533 IU/L
ALT (72 h, time 3 day): 39.2 IU/L
AST (72 h, time 3 day): 68 IU/L
BUN (72 h, time 3 day): 16.8 mg/dL
CRE (72 h, time 3 day): 0.2 mg/dL
Ca (72 h, time 3 day): 10.9 mg/dL
Cl (72 h, time 3 day): 106.4 meq/L
DBIL (72 h, time 3 day): 0.002 mg/dL
GLC (72 h, time 3 day): 187.2 mg/dL
IP (72 h, time 3 day): 7.1 mg/dL
K (72 h, time 3 day): 4.4 meq/L
LDH (72 h, time 3 day): 210.8 IU/L
Na (72 h, time 3 day): 142.6 meq/L
PL (72 h, time 3 day): 140.6 mg/dL
RALB (72 h, time 3 day): 3 g/dL
TBIL (72 h, time 3 day): 0.012 mg/dL
TC (72 h, time 3 day): 75.4 mg/dL
TG (72 h, time 3 day): 86.8 mg/dL
TP (72 h, time 3 day): 5.6 g/dL
gamma-GTP (72 h, time 3 day): 1 IU/L
TERMINAL_BW ([…], time 7 day): 246.2 g
TERMINAL_BW ([…], time 14 day): 277 g
TERMINAL_BW ([…], time 28 day): 347.3 g
APTT ([…], time 7 day): 21.1 s
Bas ([…], time 7 day): 0%
Eos ([…], time 7 day): 0.6%
Fbg ([…], time 7 day): 320.8 mg/dL
Hb ([…], time 7 day): 13.4 g/dL
Ht ([…], time 7 day): 39.8%
Lym ([…], time 7 day): 80.2%
MCH ([…], time 7 day): 20.8 pg
MCHC ([…], time 7 day): 33.6%
MCV ([…], time 7 day): 61.8 fL
Mono ([…], time 7 day): 2%
Neu ([…], time 7 day): 16.4%
PT ([…], time 7 day): 17 s
Plat ([…], time 7 day): 131 x10_4/uL
RBC ([…], time 7 day): 644.2 x10_4/ul
Ret ([…], time 7 day): 5.8%
WBC ([…], time 7 day): 122.7 x10_2/uL
APTT ([…], time 14 day): 21.6 s
Bas ([…], time 14 day): 0%
Eos ([…], time 14 day): 1%
Fbg ([…], time 14 day): 303.8 mg/dL
Hb ([…], time 14 day): 14 g/dL
Ht ([…], time 14 day): 40.9%
Lym ([…], time 14 day): 81.8%
MCH ([…], time 14 day): 20.3 pg
MCHC ([…], time 14 day): 34.2%
MCV ([…], time 14 day): 59.4 fL
Mono ([…], time 14 day): 2%
Neu ([…], time 14 day): 14.4%
PT ([…], time 14 day): 16.7 s
Plat ([…], time 14 day): 112.6 x10_4/uL
RBC ([…], time 14 day): 689.8 x10_4/ul
Ret ([…], time 14 day): 4.2%
WBC ([…], time 14 day): 133.3 x10_2/uL
APTT ([…], time 28 day): 23.4 s
Bas ([…], time 28 day): 0%
Eos ([…], time 28 day): 1%
Fbg ([…], time 28 day): 288.2 mg/dL
Hb ([…], time 28 day): 14.7 g/dL
Ht ([…], time 28 day): 42.7%
Lym ([…], time 28 day): 79%
MCH ([…], time 28 day): 19.5 pg
MCHC ([…], time 28 day): 34.3%
MCV ([…], time 28 day): 56.9 fL
Mono ([…], time 28 day): 1.6%
Neu ([…], time 28 day): 17.4%
PT ([…], time 28 day): 16.1 s
Plat ([…], time 28 day): 97.6 x10_4/uL
RBC ([…], time 28 day): 751.4 x10_4/ul
Ret ([…], time 28 day): 2.9%
WBC ([…], time 28 day): 92 x10_2/uL
KIDNEY_L ([…], time 7 day): 1 g
KIDNEY_R ([…], time 7 day): 1 g
KIDNEY_TOTAL ([…], time 7 day): 2.1 g
KIDNEY_L ([…], time 14 day): 1.1 g
KIDNEY_R ([…], time 14 day): 1.1 g
KIDNEY_TOTAL ([…], time 14 day): 2.3 g
KIDNEY_L ([…], time 28 day): 1.3 g
KIDNEY_R ([…], time 28 day): 1.3 g
KIDNEY_TOTAL ([…], time 28 day): 2.5 g
LIVER ([…], time 7 day): 10.9 g
LIVER ([…], time 14 day): 11.5 g
LIVER ([…], time 28 day): 13.4 g
A/G ([…], time 7 day): 1.2
ALP ([…], time 7 day): 1666.2 IU/L
ALT ([…], time 7 day): 40 IU/L
AST ([…], time 7 day): 68 IU/L
BUN ([…], time 7 day): 17.8 mg/dL
CRE ([…], time 7 day): 0.2 mg/dL
Ca ([…], time 7 day): 10.6 mg/dL
Cl ([…], time 7 day): 107.4 meq/L
DBIL ([…], time 7 day): 0 mg/dL
GLC ([…], time 7 day): 182.4 mg/dL
IP ([…], time 7 day): 7.3 mg/dL
K ([…], time 7 day): 4.4 meq/L
LDH ([…], time 7 day): 164.4 IU/L
Na ([…], time 7 day): 144.4 meq/L
PL ([…], time 7 day): 146.6 mg/dL
RALB ([…], time 7 day): 3 g/dL
TBIL ([…], time 7 day): 0.01 mg/dL
TC ([…], time 7 day): 72.6 mg/dL
TG ([…], time 7 day): 125.8 mg/dL
TP ([…], time 7 day): 5.6 g/dL
gamma-GTP ([…], time 7 day): 1.8 IU/L
A/G ([…], time 14 day): 1.1
ALP ([…], time 14 day): 1834 IU/L
ALT ([…], time 14 day): 39.6 IU/L
AST ([…], time 14 day): 68 IU/L
BUN ([…], time 14 day): 19 mg/dL
CRE ([…], time 14 day): 0.2 mg/dL
Ca ([…], time 14 day): 10.1 mg/dL
Cl ([…], time 14 day): 107.4 meq/L
DBIL ([…], time 14 day): 0.002 mg/dL
GLC ([…], time 14 day): 194.8 mg/dL
IP ([…], time 14 day): 6.7 mg/dL
K ([…], time 14 day): 4.1 meq/L
LDH ([…], time 14 day): 160.2 IU/L
Na ([…], time 14 day): 142.4 meq/L
PL ([…], time 14 day): 138 mg/dL
RALB ([…], time 14 day): 3 g/dL
TBIL ([…], time 14 day): 0.008 mg/dL
TC ([…], time 14 day): 63.8 mg/dL
TG ([…], time 14 day): 128 mg/dL
TP ([…], time 14 day): 5.5 g/dL
gamma-GTP ([…], time 14 day): 1.2 IU/L
A/G ([…], time 28 day): 1.2
ALP ([…], time 28 day): 1175.4 IU/L
ALT ([…], time 28 day): 42.6 IU/L
AST ([…], time 28 day): 66.4 IU/L
BUN ([…], time 28 day): 18.6 mg/dL
CRE ([…], time 28 day): 0.2 mg/dL
Ca ([…], time 28 day): 10.2 mg/dL
Cl ([…], time 28 day): 107.8 meq/L
DBIL ([…], time 28 day): 0.004 mg/dL
GLC ([…], time 28 day): 183.6 mg/dL
IP ([…], time 28 day): 6 mg/dL
K ([…], time 28 day): 4.1 meq/L
LDH ([…], time 28 day): 156 IU/L
Na ([…], time 28 day): 143.2 meq/L
PL ([…], time 28 day): 131.8 mg/dL
RALB ([…], time 28 day): 3.1 g/dL
TBIL ([…], time 28 day): 0.012 mg/dL
TC ([…], time 28 day): 67 mg/dL
TG ([…], time 28 day): 103 mg/dL
TP ([…], time 28 day): 5.7 g/dL
gamma-GTP ([…], time 28 day): 1.8 IU/L
